From PubChem BioAssay (NCI)
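The compound was tested at five concentrations on cells cultured in 96-well plates, with a 48-hour exposure period. At the GI50, growth is halved. The concentration for full growth arrest is given as TGI.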

Tests used:
Assay in all cases: DTP human tumour cell line panel, 48 h
[1] = tested on: NCI/ADR-RES ovarian
[2] = tested on: RPMI-8226 leukemia
[3] = tested on: MCF7 breast
[4] = tested on: NCI-H23 lung
[5] = tested on: UACC-62 melanoma
[6] = tested on: HCC-2998 colon
[7] = tested on: SW-620 colon
[8] = tested on: HS 578T breast
[9] = tested on: OVCAR-3 ovarian
[10] = tested on: SK-MEL-2 melanoma

`O=c1oc2ccc(I)cc2c(=O)n1-c1ccc(F)cc1F` was tested, and the GI50 [1] was 2.64 µM, the TGI [1] was 13.4 µM and the GI50 [2] was 1.49 µM. It also gave a TGI [2] of 4.83 µM, a GI50 [3] of 2.38 µM and a TGI [3] of 49.1 µM. The GI50 [4] was 2.14 µM, the TGI [4] was 7.94 µM and the GI50 [5] was 1.31 µM. The TGI [5] was 4.19 µM, the GI50 [6] was 3.23 µM and the TGI [6] was 13.9 µM. It also gave a GI50 [7] of 2.73 µM, a TGI [7] of 11.6 µM and a GI50 [8] of 2.04 µM. It also gave a TGI [8] of 6.55 µM, a GI50 [9] of 2.67 µM and a TGI [9] of 13 µM. It also gave a GI50 [10] of 2.15 µM and a TGI [10] of 5.73 µM.

Work on `CC(=O)O[C@H]([C@H](OC(C)=O)[C@H](C)OC(C)=O)[C@@H](/C=C/[C@@H]1CC=CC(=O)O1)OC(C)=O` yielded a GI50 [1] of over 100 µM, a TGI [1] of over 100 µM and a GI50 [2] of 29.7 µM. The TGI [2] was 99.5 µM, the GI50 [3] was 33.5 µM and the TGI [3] was over 100 µM. For the same compound, the GI50 [4] was 35.6 µM, the TGI [4] was over 100 µM and the GI50 [5] was over 100 µM. The TGI [5] was over 100 µM, the GI50 [6] was 29 µM and the TGI [6] was 77.2 µM. It also gave a GI50 [7] of 40 µM, a TGI [7] of over 100 µM and a GI50 [8] of 54.7 µM. The TGI [8] was over 100 µM, the GI50 [9] was 17.1 µM and the TGI [9] was 41.9 µM. For the same compound, the GI50 [10] was 24 µM and the TGI [10] was 74.4 µM.

For `COc1ccc2c(c1)c(-c1nc(-c3c[nH]c4ncccc34)cs1)cn2CCCN1CCCCC1`, the GI50 [1] was 1.72 µM, the TGI [1] was 3.44 µM and the GI50 [2] was 2.19 µM. It also gave a TGI [2] of 4.8 µM, a GI50 [3] of 1.43 µM and a TGI [3] of 2.9 µM. It also gave a GI50 [4] of 1.77 µM, a TGI [4] of 3.52 µM and a GI50 [5] of 1.87 µM. The TGI [5] was 3.53 µM, the GI50 [6] was 1.78 µM and the TGI [6] was 3.42 µM. For the same compound, the GI50 [7] was 2 µM, the TGI [7] was 3.95 µM and the GI50 [8] was 2.05 µM. The TGI [8] was 5.61 µM, the GI50 [9] was 1.63 µM and the TGI [9] was 3.1 µM. It also gave a GI50 [10] of 1.85 µM and a TGI [10] of 3.72 µM.

Compound `COC1C(O)CC(OC2CC(OC3CC(O[C@@H]4C(=O)c5c(cc6cc(OC7CC(OC8CC(O)C(O)C(C)O8)C(O)C(C)O7)c(C)c(O)c6c5O)CC4[C@H](OC)C(=O)O)OC(C)C3O)OC(C)C2O)OC1C` (stereo not given in full) has a GI50 [1] of 10.3 µM, a TGI [1] of over 33.3 µM and a GI50 [2] of 1.73 µM. It also gave a TGI [2] of over 33.3 µM, a GI50 [3] of 0.928 µM and a TGI [3] of over 33.3 µM. The GI50 [4] was 1.63 µM, the TGI [4] was 17.2 µM and the GI50 [5] was 0.842 µM. For the same compound, the TGI [5] was 2.54 µM, the GI50 [6] was 3.1 µM and the TGI [6] was 20 µM. It also gave a GI50 [7] of 2.52 µM, a TGI [7] of over 33.3 µM and a GI50 [8] of 1.93 µM. The TGI [8] was over 33.3 µM, the GI50 [9] was 2.06 µM and the TGI [9] was over 33.3 µM. It also gave a GI50 [10] of 1.47 µM and a TGI [10] of 10.6 µM.

`COc1ccc(C=Nc2c(C(=O)Nc3cccc(Cl)c3C)sc3nc(C)c(C(=O)/C=C/c4ccc(OC)cc4)cc23)cc1` showed a GI50 [1] of 0.197 µM, a TGI [1] of 1.17 µM and a GI50 [2] of 1.5 µM. The TGI [2] was over 50 µM, the GI50 [3] was 0.293 µM and the TGI [3] was over 50 µM. It also gave a GI50 [4] of 0.917 µM, a TGI [4] of 17.1 µM and a GI50 [5] of 0.312 µM. The TGI [5] was over 23.1 µM, the GI50 [6] was 9.89 µM and the TGI [6] was over 50 µM. The GI50 [7] was 0.412 µM, the TGI [7] was over 50 µM and the GI50 [8] was 0.458 µM. It also gave a TGI [8] of 7.67 µM, a GI50 [9] of 0.267 µM and a TGI [9] of 5.95 µM. For the same compound, the GI50 [10] was 0.98 µM and the TGI [10] was 36.1 µM.

Compound `O=C1C(=C(C(F)(F)Cl)C(F)(F)Cl)C2CCC1C2` (stereo not given) has a TGI [1] of 5.18 µM, a TGI [2] of over 3.16 µM and a TGI [3] of over 6.52 µM. The TGI [4] was 4.63 µM, the TGI [5] was 4.4 µM and the TGI [6] was over 10 µM. It also gave a TGI [7] of 3.98 µM, a TGI [8] of over 10 µM and a TGI [9] of over 6.36 µM. It also gave a TGI [10] of 4.21 µM.

Work on `CC(=O)OC1CCC2(C)C(CCC3C2CC(=O)C2(C)C3CC(N3CC3)C2C(C)=O)C1` (stereo not given) yielded a TGI [1] of 94.2 µM, a TGI [2] of 83.6 µM and a TGI [3] of 47.1 µM. It also gave a TGI [4] of 44.9 µM, a TGI [5] of 36.5 µM and a TGI [6] of 32 µM. For the same compound, the TGI [7] was over 100 µM, the TGI [8] was 40.9 µM and the TGI [9] was 97.3 µM. For the same compound, the TGI [10] was 36.1 µM.
